From publication PMC9917550, “Discovery of Novel Thiazolidinedione-Derivatives with Multi-Modal Antidiabetic Activities In Vitro and In Silico” (International Journal of Molecular Sciences, 2023)

What was measured:
[1] = target: T1, DPP-4 (Homo sapiens, UniProt P27487); assay: Dipeptidyl peptidase-4 inhibition assay (DPP-4 Inhibitor Screening Kit); assay type: biochemical; conditions: for DPP-4 inhibition: 10, 20, 30, 40 and 50 µg/mL; for IC50: read-out: IC50 for the Inhibitory Activity Assays, DPP-4 (converted); for DPP-4 inhibitory activity (in words): 10-50 µg/mL, versus control
T1 construct: purchased Sigma-Aldrich MAK203
Experimental: This assay was performed according to the DPP-4 Inhibitor Screening Kit (catalogue number: MAK203) product information (Sigma-Aldrich.com) with minor modifications to the volumes to suit the 96-well plate assay.

[2] = target: T2, protein tyrosine phosphatase-1B (PTP-1B) (Homo sapiens, UniProt P18031); assay: Protein tyrosine phosphatase-1B inhibition assay; assay type: biochemical; conditions: for PTP-1B inhibitory activity (in words): 10-50 µg/mL, versus control; for IC50: read-out: IC50 for the Inhibitory Activity Assays, PTP-1B (converted)
T2 sequence (P18031 1-435): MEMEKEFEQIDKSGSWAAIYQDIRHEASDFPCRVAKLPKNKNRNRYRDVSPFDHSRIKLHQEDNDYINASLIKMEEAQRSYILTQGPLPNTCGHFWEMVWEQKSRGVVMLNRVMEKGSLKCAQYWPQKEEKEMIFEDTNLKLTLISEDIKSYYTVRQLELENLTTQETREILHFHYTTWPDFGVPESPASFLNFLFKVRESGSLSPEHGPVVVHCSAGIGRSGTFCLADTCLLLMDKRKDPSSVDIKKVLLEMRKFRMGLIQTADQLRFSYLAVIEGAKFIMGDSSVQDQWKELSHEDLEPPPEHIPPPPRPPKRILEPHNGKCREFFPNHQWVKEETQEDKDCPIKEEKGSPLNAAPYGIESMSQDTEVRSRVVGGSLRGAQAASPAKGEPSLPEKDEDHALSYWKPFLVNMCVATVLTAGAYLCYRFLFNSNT
Experimental: The protein tyrosine phosphatase-1B (PTP-1B) inhibition assay was performed according to the method described by Song et al. with some modifications. […] The absolute control contained all the reagents used except the inhibitor compounds. The inhibition activity was calculated using:
(§1) % Inhibition = [(∆Abscontrol − ∆Abssample)/∆Abscontrol] × 100%, where ∆Abs is the change is absorbance.

[3] = target: T3, α-amylase (Sus scrofa, UniProt P00690); assay: α-amylase inhibition assay; assay type: biochemical; conditions: 10-50 µg/mL, versus control, p < 0.05
T3 sequence (P00690 16-511): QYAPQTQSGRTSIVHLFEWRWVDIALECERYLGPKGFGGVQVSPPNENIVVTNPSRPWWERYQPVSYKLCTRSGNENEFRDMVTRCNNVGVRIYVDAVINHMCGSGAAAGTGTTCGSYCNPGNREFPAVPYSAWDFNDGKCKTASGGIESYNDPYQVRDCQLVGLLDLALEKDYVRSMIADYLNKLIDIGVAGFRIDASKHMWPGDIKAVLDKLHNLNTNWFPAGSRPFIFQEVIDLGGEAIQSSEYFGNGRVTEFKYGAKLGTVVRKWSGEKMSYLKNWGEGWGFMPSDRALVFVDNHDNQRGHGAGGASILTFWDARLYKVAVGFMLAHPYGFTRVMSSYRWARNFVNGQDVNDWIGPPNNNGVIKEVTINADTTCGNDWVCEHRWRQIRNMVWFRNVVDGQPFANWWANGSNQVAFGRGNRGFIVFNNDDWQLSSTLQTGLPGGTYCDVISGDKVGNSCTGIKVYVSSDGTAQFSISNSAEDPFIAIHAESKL
Experimental: The α-amylase inhibitory activity was determined using the method described by the Worthington Enzyme Manual with slight modifications. The TZD derivatives were assayed at 10, 20, 30, 40, and 50 µg/mL. […] The sodium phosphate buffer was used as a blank. The inhibitory activity was calculated according to the equation:
Inhibition (%) = ((Acontrol − Asample)/Acontrol) × 100%, where Acontrol was the absorbance of the control (without the inhibitor); Asample was the absorbance in the presence of TZD derivatives.

[4] = target: aldose reductase (Homo sapiens, UniProt P15121); assay: Aldose reductase inhibition assay; assay type: biochemical; conditions: for IC50: read-out: IC50 for the Inhibitory Activity Assays, AR (converted); for aldose reductase inhibitory activity (in words): 10-50 µg/mL, versus control, p < 0.05
Experimental: The aldose reductase (AR) inhibition assay was performed according to the method described by Kazeem et al. with minor modifications. All the TZD derivatives were assayed at 10, 20, 30, 40, and 50 µg/mL. […] The absolute standard contained all the reagents used except for the inhibitor compounds. The aldose reductase inhibition activity was calculated as a percentage inhibition from:
as §1

[5] = system: liver cells (HEP-G2); assay: Glucose uptake in liver cells; assay type: cell-based; conditions: 25, 50 and 100 µg/mL, 24 h, versus control
Experimental: HEPG-2 liver cells were cultured in MEME supplemented with pen/strep (1%) and FBS (10%) in a […] under tissue culture conditions. Upon confluency (80%), cells were trypsinized and seeded into the 96-well plates. Upon confluency, the cell preparations were exposed to different concentrations (25, 50, and 100 µg/mL) of TZDDs, and a media glucose reading was taken before incubation (time = 0). Thereafter, the plates containing cells and treatments were incubated for 24 h under tissue culture conditions. The non-treated cells and insulin treated cells served as absolute and positive controls, respectively. After a 24 h incubation, the medium glucose was taken using a glucometer. The percentage glucose uptake was calculated as follows:
Glucose uptake (%) = (T24/T0) × 100

[6] = target: T4, α-glucosidase (Saccharomyces cerevisiae, UniProt P53341); assay type: biochemical
[7] = target: T4, α-glucosidase; assay: Mode of inhibition of α-glucosidase (Michaelis-Menten, Lineweaver-Burk); assay type: biochemical; conditions: substrate pNPG
Experimental: The Ki values were calculated with GraphPad Prism 9.2.0. (332) by plotting the reciprocal of maximum velocity (1/Vmax) (y-axis) against the derivative concentrations (x-axis). The types of inhibition parameters were all calculated with GraphPad Prism 9.2.0. Briefly, 30 µL of α-glucosidase enzyme (0.5 IU/mL) was dissolved in the 0.02 M phosphate buffer (pH 6.9), and then was pre-incubated at 37 °C with the above-mentioned derivative (50 µL) in a 96-well plate, for 5 min. In sequence, pNPG (0.125, 0.250, 0.500, 0.750, 1.000, 1.500, 2.000, 2.500, and 5.000 mM) was added and incubated in the reaction mixture at 37 °C for 30 min.

T4 sequence (P53341 whole entry): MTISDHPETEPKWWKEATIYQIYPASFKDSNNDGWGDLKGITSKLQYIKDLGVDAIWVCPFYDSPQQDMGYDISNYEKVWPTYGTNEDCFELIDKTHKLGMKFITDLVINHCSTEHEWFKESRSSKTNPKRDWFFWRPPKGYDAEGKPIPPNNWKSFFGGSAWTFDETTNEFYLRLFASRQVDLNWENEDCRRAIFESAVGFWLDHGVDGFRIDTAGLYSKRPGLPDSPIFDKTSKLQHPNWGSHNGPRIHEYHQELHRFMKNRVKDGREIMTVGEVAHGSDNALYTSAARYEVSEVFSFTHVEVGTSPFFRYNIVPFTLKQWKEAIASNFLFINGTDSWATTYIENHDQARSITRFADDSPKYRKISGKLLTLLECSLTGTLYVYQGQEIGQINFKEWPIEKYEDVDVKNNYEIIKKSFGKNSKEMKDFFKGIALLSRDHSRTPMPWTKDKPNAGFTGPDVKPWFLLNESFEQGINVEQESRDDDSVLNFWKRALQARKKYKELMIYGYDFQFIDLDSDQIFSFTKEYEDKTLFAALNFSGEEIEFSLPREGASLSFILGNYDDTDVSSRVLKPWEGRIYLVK
T1 sequence (P27487 whole entry, species assumed): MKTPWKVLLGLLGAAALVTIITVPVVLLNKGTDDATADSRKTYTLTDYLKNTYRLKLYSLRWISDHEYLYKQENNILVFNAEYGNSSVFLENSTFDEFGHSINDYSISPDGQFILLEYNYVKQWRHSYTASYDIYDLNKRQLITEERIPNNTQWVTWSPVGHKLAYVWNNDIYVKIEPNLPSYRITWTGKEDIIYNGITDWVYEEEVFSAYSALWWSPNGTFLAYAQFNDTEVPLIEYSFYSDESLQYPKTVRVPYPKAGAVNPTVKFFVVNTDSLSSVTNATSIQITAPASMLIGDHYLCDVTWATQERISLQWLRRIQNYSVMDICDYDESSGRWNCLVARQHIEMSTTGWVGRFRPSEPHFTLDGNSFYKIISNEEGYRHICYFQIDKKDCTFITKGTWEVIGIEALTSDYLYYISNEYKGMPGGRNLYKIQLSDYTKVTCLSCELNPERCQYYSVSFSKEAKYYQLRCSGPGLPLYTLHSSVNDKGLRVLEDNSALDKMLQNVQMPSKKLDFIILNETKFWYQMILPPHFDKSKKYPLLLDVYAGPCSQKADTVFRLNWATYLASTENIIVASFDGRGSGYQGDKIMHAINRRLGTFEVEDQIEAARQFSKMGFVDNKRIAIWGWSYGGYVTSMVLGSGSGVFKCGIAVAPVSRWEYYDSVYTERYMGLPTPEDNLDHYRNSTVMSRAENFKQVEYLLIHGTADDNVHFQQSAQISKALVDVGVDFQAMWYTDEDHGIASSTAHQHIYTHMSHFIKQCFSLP

| Compound | DPP-4 inhibition [1] | IC50 [1] | PTP-1B inhibitory activity (in words) [2] | IC50 [2] | α-amylase inhibitory activity (in words) [3] | IC50 [4] | DPP-4 inhibitory activity (in words) [1] | IC50 for the Inhibitory Activity Assays, PTP-1B [2] | aldose reductase inhibitory activity (in words) [4] | Effect on glucose uptake [5] | α-glucosidase inhibitory activity (in words) [6] | Vmax ([7]; TZDD3 at 60 µg/mL) | Vmax ([7]; TZDD3 at 120 µg/mL) |
| --- | --- | --- | --- | --- | --- | --- | --- | --- | --- | --- | --- | --- | --- |
| Cc1cc(/C=C2/S/C(=N\c3ccccc3)NC2=O)c(C)n1-c1ccccc1 [TZDD4, (2Z,5E)-5-((2,5-dimethyl-1-phenyl-1H-pyrrol-3-yl)methylene)-2-(phenylimino)thiazolidin-4-one] | ≥ 20% | 192 µM | weak inhibitory activity | 693 µM | showed inhibitory activity | 98.5 µM | – | – | – | – | – | – | – |
| COc1cc(OC)c(/C=C2/SC(=O)N(CC(=O)N3CCN(c4ccccc4)CC3)C2=O)c(OC)c1 [TZDD1, (E)-5-(2,4,6-trimethoxybenzylidene)-3-(2-oxo-2-(4-phenylpiperazin-1-yl)ethyl)thiazolidine-2,4-dione] | – | 147 µM | weak inhibitory activity | – | showed inhibitory activity | 55.3 µM | very weak inhibitory activity | unstable | concentration-dependent inhibitory activity | – | – | – | – |
| O=c1c(O)c(-c2ccc(O)c(O)c2)oc2cc(O)cc(O)c12 [Quercetin, reference compound] | – | – | – | – | – | – | – | – | significant (p < 0.05) inhibitory activity | – | – | – | – |
| Cc1cc(/C=C2\SC(=O)N(CC(=O)N3CCCC3)C2=O)c(C)n1-c1ccccc1 [TZDD2, (Z)-5-((2,5-Dimethyl-1phenyl-1H-pyrrol-3-yl)methylene)-3-(2-oxo-2-(pyrrolidin-1-yl)ethyl)thiazolidine-2,4-dione] | ≥ 20% | 78 µM | weak inhibitory activity | 334 µM | showed inhibitory activity | 201 µM | relatively higher activity | – | – | increase glucose uptake | – | – | – |
| insulin | – | – | – | – | – | – | – | – | – | enhanced glucose uptake | – | – | – |
| C[C@H]1O[C@H](O[C@H]2[C@H](O)[C@@H](O)[C@@H](O[C@H]3[C@H](O)[C@@H](O)C(O)O[C@@H]3CO)O[C@@H]2CO)[C@H](O)[C@@H](O)[C@@H]1N[C@H]1C=C(CO)[C@@H](O)[C@H](O)[C@H]1O (stereo partly drawn) [Acarbose, reference compound] | – | – | – | – | significant (p < 0.05) inhibitory activity | – | – | – | – | – | significant (p < 0.05) inhibitory activity | – | – |
| Cc1cc(/C=C2\SC(=O)N(CC(=O)O)C2=O)c(C)n1-c1ccccc1 [TZDD3, (Z)-2-(5-((2,5-Dimethyl-1-phenyl-1H-pyrrol-3-yl)methylene)-2,4-dioxothiazolidin-3-yl)acetic Acid] | – | 213 µM | – | – | concentration-dependent inhibitory activity | 161 µM | very weak inhibitory activity | unstable | decreasing inhibition activity | – | – | 59.43 | 32.76 |
